Assays:
Format in all cases: binding, rabbit
antiserum F-12 = test: Specificity / cross reactivity of the radioimmunoassay, antiserum F-12; settings: for Percentage Reactivity (inhibition of 125I binding relative to inhibition by 5 ng of 2,3,7,8-TCDD): "Cutscum"
Description: (§1) Since TCDD itself has no chemically reactive functional groups, a derivative was synthesized that retained most of the structural features of TCDD but with the addition of a reactive site. This derivative was coupled to an immunogenic protein carrier, such as bovine serum albumin, rabbit serum albumin, etc., so that animals would respond to it by producing an antiserum containing antibodies. A second compound was synthesized, still structurally similar to TCDD so that it would bind to the antibodies, but capable of being labeled with ^125 I for detectability at the picogram level. An amount of antiserum capable of binding about 20 pg of ^125 I-labeled dioxin derivative (hapten) is preincubated with the detergent emulsion of the sample extract (possibly containing TCDD). Then the mixture is incubated with the ^125 I-labeled derivative long enough for equilibrium binding to occur and form the hapten-antibody complex. A second antibody, namely, goat antibodies against rabbit gamma-globulin (i.e., goat anti-rabbit γ-globulin) are then added to precipitate the antibody ^125 I-labeled dioxin complex, and the amount of ^125 I in the precipitate is determined. The extent to which preincubation with the test material inhibits or decreases the amount of ^125 I precipitated relative to the amount precipitated in the absence of test material is a measure of the amount of chlorodibenzodioxin in the test sample.
(§2) Radioimmunoassay of small molecules requires some means of separating free hapten from antibody-bound hapten. The procedure used in the present invention, chosen because of its compatibility with detergent-solubilized hapten, involved precipitating the antibody-hapten complex with a second antibody, namely, goat antibodies against rabbit gamma-globulin. In this assay chlorodibenzodioxin from the environmental sample completes with the ^125 I-labeled hapten for binding to the antibody. Thus, the decrease in precipitation of radioactivity is a measure of the amount of (unlabeled) hapten in the test sample.
(§3) The assay buffer (hereinafter referred to as "PBS") contained, per liter, 20 mmol of potassium phosphate, 140 mmol of NaCl, and 200 mg of sodium azide. The pH was adjusted to 7.3 with NaOH. Antiserum was diluted with PBS also containing 0.1% bovine gamma globulin and 0.02% rabbit gamma globulin (w/v). Each assay tube from procedure G above received 0.2 ml of PBS, after which the tubes were held in the sonicator for 40 minutes and then cooled to room temperature. Appropriately diluted antiserum or, as control, antiserum diluant was added (0.2 ml) and, after vortex-mixing, the tubes were incubated for 40 minutes at 37°. 14000 disintegrations per minute (hereafter referred to as "DPM") or 7000 counts per minute (hereinafter referred to as "CPM", which equals DPM×counting efficiency) of [^125 I]-iodovaleramide derivative of trichlorodibenzo-p-dioxin in PBS containing 1% "Cutscum" were then added to each tube (approximately 10 μl), vortex mixed, and the tubes incubated for 1 hour at 37° followed by an additional 65 hours of incubation at 4°. Each tube next received 1.24 units of goat anti-rabbit gamma globulin in 0.2 ml of PBS containing 0.05 mM ethylenediamine tetracetic acid (hereinafter referred to as "EDTA"), was vortex mixed, and incubated for 5 hours at 4°. The tubes were centrifuged at 500×g for 20 minutes at 4°. The supernates were poured off and the tubes allowed to drain into Whatman #3 MM paper for 10 minutes. The precipitate or pellets obtained were then radioassayed for ^125 I, with 10 minute count cycles.
(§4) Standard curves were prepared using sequential two-fold dilutions of TCDD or other test compounds in benzene and evaporating the solvent as described above. Both control (blank) and TCDD-spiked tissues were extracted and processed as described above to determine general interference and recoveries. All samples were run in triplicate. […]

antiserum GC-5 = test: Cross reactivity in chlorinated DBD radioimmunoassay, antiserum GC-5; settings: for maximum inhibition of binding of 125I-labeled hapten: GC-5 diluted such that 33% of the label was bound in the absence of competitors
Description: as §1, §2, §3, §4

[1] = test system: anti-chlorinated dibenzodioxin serum (antisera GC-5 and F-12); test: Double-antibody radioimmunoassay, both antisera (general cross reactivity, interference and sensitivity); settings: for cross reactivity of the three dichlorodibenzo-p-dioxins: 5 ng level; for activity v concentration curve slope: both antisera
Description: as §1, §2, §3, §4

SMILES	Cross Reactivity, Antiserum F-12: 100 × (inhibition of 125I binding by 4 pmole of test compound)/(inhibition by 4 pmole of 2,3,7,8-TCDD) (antiserum F-12) [%]	Cross Reactivity, Antiserum GC-5: 100 × (inhibition of 125I binding by 4 pmole of test compound)/(inhibition by 4 pmole of 2,3,7,8-TCDD) (antiserum GC-5) [%]	other results
Clc1c(Cl)c(Cl)c2c(oc3c(Cl)c(Cl)c(Cl)c(Cl)c32)c1Cl [Octachloro Dibenzofuran]	8	14	
CCCCC(CC)COC(=O)c1c(Cl)c(Cl)c(Cl)c(Cl)c1C(=O)OCC(CC)CCCC (stereo not shown) [Tetrachloro DEHP]			Percentage Reactivity (inhibition of 125I binding relative to inhibition by 5 ng of 2,3,7,8-TCDD) (antiserum F-12; highest amount tested 200 ng): 0.1%
Clc1cc(Cl)c(-c2cc(Cl)c(Cl)cc2Cl)cc1Cl [2,4,5,2',4',5'-HCBP]			Percentage Reactivity (inhibition of 125I binding relative to inhibition by 5 ng of 2,3,7,8-TCDD) (antiserum F-12; highest amount tested 100 ng): 0%
Clc1cc2c(cc1Cl)Oc1ccccc1O2 [2,3-Cl2 Dibenzo-p-Dioxin, 2,3-dichloro DBD]	16	44	cross reactivity of the three dichlorodibenzo-p-dioxins [1]: very similar in their cross reactivity; activity v concentration curve slope [1]: steepest sloop; binding by the antibodies in GC-5 (antiserum GC-5): only a portion bind 2,3-dichloro DBD; maximum inhibition of binding of 125I-labeled hapten (antiserum GC-5): 55%
Clc1cc2c(cc1Cl)Oc1c(Cl)c(Cl)cc(Cl)c1O2 [1,2,4,7,8-Cl5 Dibenzo-p-Dioxin]	36	76	
Clc1ccc(Oc2ccc(Cl)c(Cl)c2)cc1Cl [3,4,3',4'-TCBPE]			Percentage Reactivity (inhibition of 125I binding relative to inhibition by 5 ng of 2,3,7,8-TCDD) (antiserum F-12; highest amount tested 200 ng): 0.1%
Clc1ccc2c(c1)Oc1cc(Cl)c(Cl)cc1O2 [2,3,7-Cl3 Dibenzo-p-Dioxin]	77	73	
Clc1c(Cl)c(Cl)c2c(c1Cl)Oc1c(Cl)c(Cl)c(Cl)c(Cl)c1O2 [Octachloro Dibenzo-p-Dioxin]	8	100	
Clc1ccc2c(c1)Oc1ccc(Cl)cc1O2 [2,7-Cl2 Dibenzo-p-Dioxin]	20	56	cross reactivity of the three dichlorodibenzo-p-dioxins [1]: very similar in their cross reactivity
O=C1OC2(c3cc(Cl)c(O)cc3Oc3cc(O)c(Cl)cc32)c2ccccc21 [2,7-Dichlorofluorescein]			Percentage Reactivity (inhibition of 125I binding relative to inhibition by 5 ng of 2,3,7,8-TCDD) (antiserum F-12; highest amount tested 200 ng): 0%
O=C(O)COc1cc(Cl)c(Cl)cc1Cl [2,4,5-T (Commercial), 2,4,5-trichlorophenoxyacetic acid]			Percentage Reactivity (inhibition of 125I binding relative to inhibition by 5 ng of 2,3,7,8-TCDD) (antiserum F-12; highest amount tested 10 μg): 37%
O=C1c2ccccc2-c2ccccc21 [9-Fluorenone]			Percentage Reactivity (inhibition of 125I binding relative to inhibition by 5 ng of 2,3,7,8-TCDD) (antiserum F-12; highest amount tested 100 ng): 0%
ClC(Cl)=C(c1ccc(Cl)cc1)c1ccc(Cl)cc1 [DDE]			Percentage Reactivity (inhibition of 125I binding relative to inhibition by 5 ng of 2,3,7,8-TCDD) (antiserum F-12; highest amount tested 400 ng): 0%
Clc1c(Cl)c(Cl)c2c(c1Cl)Oc1ccccc1O2 [1,2,3,4-Cl4 Dibenzo-p-Dioxin, 1,2,3,4-tetrachloro DBD]	< 1	20	maximum inhibition of binding of 125I-labeled hapten (antiserum GC-5): up to 18%
Clc1cc2c(cc1Cl)Oc1c(Cl)c(Cl)c(Cl)c(Cl)c1O2 [1,2,3,4,7,8-Cl6 Dibenzo-p-Dioxin]	9	99	
Clc1cccc(Cl)c1-c1c(Cl)cccc1Cl [2,6,2',6'-TCBP]			Percentage Reactivity (inhibition of 125I binding relative to inhibition by 5 ng of 2,3,7,8-TCDD) (antiserum F-12; highest amount tested 200 ng): 0%

SMILES	Cross Reactivity, Antiserum F-12: 100 × (inhibition of 125I binding by 4 pmole of test compound)/(inhibition by 4 pmole of 2,3,7,8-TCDD) (antiserum F-12) [%]	Cross Reactivity, Antiserum GC-5: 100 × (inhibition of 125I binding by 4 pmole of test compound)/(inhibition by 4 pmole of 2,3,7,8-TCDD) (antiserum GC-5) [%]	other results
Clc1cc(Cl)cc(-c2cc(Cl)cc(Cl)c2)c1 [3,5,3',5'-TCBP]			Percentage Reactivity (inhibition of 125I binding relative to inhibition by 5 ng of 2,3,7,8-TCDD) (antiserum F-12; highest amount tested 100 ng): 0%
Clc1ccc2c(c1)Oc1cc(Cl)ccc1O2 [2,8-Cl2 Dibenzo-p-Dioxin]	17	52	cross reactivity of the three dichlorodibenzo-p-dioxins [1]: very similar in their cross reactivity; activity v concentration curve slope [1]: most shallow slope
CC(=O)Oc1c(C)c(C)c2c(c1C)CCC(C)(CCCC(C)CCCC(C)CCCC(C)C)O2 (stereo not drawn) [α-Tocopherol Acetate]			Percentage Reactivity (inhibition of 125I binding relative to inhibition by 5 ng of 2,3,7,8-TCDD) (antiserum F-12; highest amount tested 200 ng): 0%
CCCCC(CC)COC(=O)c1ccccc1C(=O)OCC(CC)CCCC (stereo not shown) [DEHP, di(2-ethylhexyl) phthalate]			Percentage Reactivity (inhibition of 125I binding relative to inhibition by 5 ng of 2,3,7,8-TCDD) (antiserum F-12; highest amount tested 100 μg): 0%
Clc1ccc2oc3cc(Cl)c(Cl)cc3c2c1 [2,3,8-Cl3 Dibenzofuran]		2	
Clc1ccc2oc3ccc(Cl)cc3c2c1 [2,8-Cl2 Dibenzofuran]		12	
c1ccc2cc3ccccc3cc2c1 [Anthracene]			Percentage Reactivity (inhibition of 125I binding relative to inhibition by 5 ng of 2,3,7,8-TCDD) (antiserum F-12; highest amount tested 100 ng): 0%
Brc1cc2oc3cc(Br)c(Br)cc3c2cc1Br [2,3,7,8-Br4 Dibenzofuran]	46		
c1ccc2c(c1)oc1ccccc12 [Unchlorinated Dibenzofuran]	< 1	2.5	
Oc1c(Cl)c(Cl)c(Cl)c(Cl)c1Cl [Pentachlorophenol]			Percentage Reactivity (inhibition of 125I binding relative to inhibition by 5 ng of 2,3,7,8-TCDD) (antiserum F-12; highest amount tested 10 μg): 0%
Clc1cc(-c2cc(Cl)c(Cl)c(Cl)c2)cc(Cl)c1Cl [3,4,5,3',4',5'-HCBP]			Percentage Reactivity (inhibition of 125I binding relative to inhibition by 5 ng of 2,3,7,8-TCDD) (antiserum F-12; highest amount tested 100 ng): 0%
Clc1cc(Cl)c2oc3cc(Cl)c(Cl)cc3c2c1 [2,3,6,8-Cl4 Dibenzofuran]	40	6	
c1ccc2c(c1)Oc1ccccc1O2 [Unchlorinated Dibenzo-p-Dioxin, Unchlorinated dibenzo-p-dioxin]	< 1	4	cross reactivity in words ([1]; either antiserum): very little cross relativity
Clc1ccc(-c2ccc(Cl)c(Cl)c2)cc1Cl [3,4,3',4'-TCBP, 3,4,3'4'-tetrachlorobiphenyl]			Percentage Reactivity (inhibition of 125I binding relative to inhibition by 5 ng of 2,3,7,8-TCDD) (antiserum F-12; highest amount tested 5 ng): 6%
CCCCCCCC/C=C\CCCCCCCC(=O)O[C@H]1CC[C@@]2(C)C(=CC[C@H]3[C@@H]4CC[C@H]([C@H](C)CCCC(C)C)[C@@]4(C)CC[C@@H]32)C1 [Cholesterol Oleate]			Percentage Reactivity (inhibition of 125I binding relative to inhibition by 5 ng of 2,3,7,8-TCDD) (antiserum F-12; highest amount tested 100 μg): 0%

— patent publication US4238472A, “Radioimmunoassay for chlorinated dibenzo-p-dioxins” (priority 1978, dated 1980)
